By IC50 is commonly meant the midpoint of a concentration-inhibition curve. High values mean lower potency, low ones higher potency.

The values below come from patent EP4653437A2 (Innovo Therapeutics Inc., priority 2023, dated 2024).

The target of one test is T1, human 15-PGDH (Homo sapiens, UniProt P15428).
T1 construct: purchased R&D System 5660-DH
T1 sequence (P15428 1-266): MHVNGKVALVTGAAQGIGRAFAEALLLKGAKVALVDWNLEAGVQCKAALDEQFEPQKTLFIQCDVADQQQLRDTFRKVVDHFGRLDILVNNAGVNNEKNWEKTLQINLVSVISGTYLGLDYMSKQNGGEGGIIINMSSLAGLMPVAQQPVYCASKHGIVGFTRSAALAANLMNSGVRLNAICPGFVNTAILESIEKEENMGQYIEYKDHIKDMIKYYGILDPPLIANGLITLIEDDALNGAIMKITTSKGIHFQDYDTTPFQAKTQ
Description: Evaluation of 15-PGDH inhibitory activity (fluorescence enzyme assay, NAD+/PGE2). The following applies: human 15-PGDH enzyme, fluorescence Vmax. The class given is biochemical. The protocol: 15-PGDH inhibition activity of Example compounds was measured as follows. 6.7 ng of human 15-PGDH (R&D System# 5660-DH) enzyme (10 µL) was added to a black 96 well plate, 60 µL of buffer (50 mM Tris-HCl, pH 7.5, 0.01% Tween 20) was added, and 10 µL of 200 µM β-Nicotinamide adenine dinucleotide sodium salt (Sigma, Cat# N0632-5G) was added. 10 µL of (10x) compound solution in DMSO was added and reacted for 10 minutes at room temperature.

The subject of another test is A549 cells. Put plainly: Measurement of PGE2-increasing activity in A549 cells (IL-1β stimulated, PGE2 quantified in supernatant). Type of test: cell-based. Particulars: Homo sapiens, 24 h; concentration of 1 µM of each compound; IL-1β treated A549 cells; read-out: Increased PGE2 production in A549 cells. An outline of the steps: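 A549 cells grown 24 h in F12K with 10% FBS, then switched to serum-free medium with or without IL-1β and compound (0.1% DMSO final). After 24 h at 37 °C, 5% CO2, supernatant PGE2 quantified by immunoassay.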

In the case of `Cc1nc(-c2cc(N)cc(-c3cccc4c(C(=O)N5CCCCC5)cnn34)c2)no1` [Example 343, (7-(3-amino-5-(5-methyl-1,2,4-oxadiazol-3-yl)phenyl)pyrazolo[1,5-a]pyridin-3-yl)(piperidin-1-yl)methanone], on human 15-PGDH, the IC50 was ≤ 0.1 µM. In the test on A549 cells, the fold induction at 1 µM is > 1.5.
Take `O=C(c1cnn2c(-c3cc(Br)cnc3N3CC(CO)C3)cccc12)N1CCCCC1` [Example 363, (7-(5-bromo-2-(3-(hydroxymethyl)azetidin-1-yl)pyridin-3-yl)pyrazolo[1,5-a]pyridin-3-yl)(piperidin-1-yl)methanone]: the IC50 on human 15-PGDH is ≤ 0.1 µM. For the same compound, the fold induction at 1 µM in the test with A549 cells was < 1.5.
Taken in the same sequence, the figures for `O=C(c1cnn2c(-c3cnc(N4CCOC4=O)c(F)c3)cccc12)N1CCCCC1` [Example 323, 3-(3-fluoro-5-(3-(piperidine-1-carbonyl)pyrazolo[1,5-a]pyridin-7-yl)pyridin-2-yl)oxazolidin-2-one] were ≤ 0.1 µM and > 1.5.
In the case of `CC(C)NC(=O)c1ccc(-c2cccc3c(C(=O)N4CCCCC4)cnn23)cn1` [Example 76, N-isopropyl-5-(3-(piperidine-1-carbonyl)pyrazolo[1,5-a]pyridin-7-yl)picolinamide], the IC50 at human 15-PGDH is ≤ 0.1 µM. Further, in the test with A549 cells, the fold induction at 1 µM is > 1.5.
For `COC(=O)C1CN(c2ccc(-c3cccc4c(C(=O)N5CCCCC5)cnn34)cn2)C1` [Example 219, methyl 1-(5-(3-(piperidine-1-carbonyl)pyrazolo[1,5-a]pyridin-7-yl)pyridin-2-yl)azetidine-3-carboxylate] the same measures were ≤ 0.1 µM and > 1.5.
Taken in the same sequence, the figures for `O=C(c1cnn2c(-c3ccc(O)c(Cl)c3)cccc12)N1CCCCC1` [Example 21] were ≤ 0.1 µM and > 1.5.
Taken in the same sequence, the figures for `O=C1NCc2ccc(-c3cccc4c(C(=O)N5CC=CCC5)cnn34)cc21` [Example 401, 6-(3-(1,2,3,6-tetrahydropyridine-1-carbonyl)pyrazolo[1,5-a]pyridin-7-yl)isoindolin-1-one] were ≤ 0.1 µM and > 1.5.
Regarding `O=C(c1cncc(-c2cccc3c(C(=O)N4CCCCC4)cnn23)c1)N1CC(=NO)C1` [Example 230, (3-hydroxyiminoazetidin-1-yl)-[5-[3-(piperidine-1-carbonyl)pyrazolo[1,5-a]pyridin-7-yl]-3-pyridyl]methanone], the IC50 against human 15-PGDH is ≤ 0.1 µM. In addition, the fold induction at 1 µM with A549 cells was > 1.5.
Taken in the same sequence, the figures for `N#Cc1c(F)cc(-c2cccc3c(C(=O)N4CCCCC4)cnn23)cc1F` [Example 290, 2,6-difluoro-4-(3-(piperidine-1-carbonyl)pyrazolo[1,5-a]pyridin-7-yl)benzonitrile] were ≤ 0.1 µM and > 1.5.
For `O=C(Nc1cccc(-c2cccc3c(C(=O)N4CCCCC4)cnn23)c1)C1CCCCC1` [Example 96, N-(3-(3-(piperidine-1-carbonyl)pyrazolo[1,5-a]pyridin-7-yl)phenyl)cyclohexanecarboxamide] the same measures were ≤ 0.1 µM and < 1.5.
Taken in the same sequence, the figures for `O=C(c1cnn2c(-c3csc4ccccc34)cccc12)N1CCCCC1` [Example 124, (7-(benzo[b]thiophen-3-yl)pyrazolo[1,5-a]pyridin-3-yl)(piperidin-1-yl)methanone] were ≤ 0.1 µM and > 1.5.
In the case of `O=C(c1cnn2c(-c3ccc(N4CCC5(CCC5)CC4)nc3)cccc12)N1CCCCC1` [Example 222, (7-(6-(7-azaspiro[3.5]nonan-7-yl)pyridin-3-yl)pyrazolo[1,5-a]pyridin-3-yl)(piperidin-1-yl)methanone], on human 15-PGDH, the IC50 is ≤ 0.1 µM. Also, the fold induction at 1 µM in the test with A549 cells is > 1.5.
Taken in the same sequence, the figures for `O=C(COc1ccc(Cl)cc1)Nc1ccc(-c2cccc3c(C(=O)N4CCCCC4)cnn23)cn1` [Example 410, 2-(4-chlorophenoxy)-N-[5-[3-(piperidine-1-carbonyl)pyrazolo[1,5-a]pyridin-7-yl]-2-pyridyl]acetamide] were ≤ 0.1 µM and > 1.5.
For `O=C(c1ccc(-c2cccc3c(C(=O)N4CCCCC4)cnn23)cn1)N1CC(F)C1` [Example 213, (3-fluoroazetidin-1-yl)-[5-[3-(piperidine-1-carbonyl)pyrazolo[1,5-a]pyridin-7-yl]-2-pyridyl]methanone] the same measures were ≤ 0.1 µM and > 1.5.
For `O=C(c1cnn2c(-c3cc(-c4ncon4)cc([N+](=O)[O-])c3)cccc12)N1CCCCC1` [Example 342, (7-(3-nitro-5-(1,2,4-oxadiazol-3-yl)phenyl)pyrazolo[1,5-a]pyridin-3-yl)(piperidin-1-yl)methanone] the same measures were ≤ 0.1 µM and > 1.5.
With `CC(C)N1CCN(C(=O)c2ccc(-c3cccc4c(C(=O)N5CCCCC5)cnn34)cc2)CC1` [Example 68, (4-isopropylpiperazin-1-yl)(4-(3-(piperidine-1-carbonyl)pyrazolo[1,5-a]pyridin-7-yl)phenyl)methanone], the IC50 on human 15-PGDH is ≤ 0.1 µM. The fold induction at 1 µM with A549 cells was > 1.5.
Taken in the same sequence, the figures for `Cc1nc(-c2ccc(-c3cccc4c(C(=O)N5CCCCC5)cnn34)cc2)cn1C` [Example 358] were ≤ 0.1 µM and > 1.5.
Taken in the same sequence, the figures for `N#CCCNC(=O)c1ccc(-c2cccc3c(C(=O)N4CCCCC4)cnn23)o1` [Example 90, N-(2-cyanoethyl)-5-(3-(piperidine-1-carbonyl)pyrazolo[1,5-a]pyridin-7-yl)furan-2-carboxamide] were ≤ 0.1 µM and > 1.5.
For `CN1CCN(c2ccc(-c3cccc4c(C(=O)N5CCCCC5)cnn34)cn2)CC1` [Example 111, (7-(6-(4-methylpiperazin-1-yl)pyridin-3-yl)pyrazolo[1,5-a]pyridin-3-yl)(piperidin-1-yl)methanone] the same measures were ≤ 0.1 µM and > 1.5.
For `O=C(Nc1ncc(-c2cccc3c(C(=O)N4CCCCC4)cnn23)cc1Cl)c1cccnc1` [Example 301, N-(3-chloro-5-(3-(piperidine-1-carbonyl)pyrazolo[1,5-a]pyridin-7-yl)pyridin-2-yl)nicotinamide], the IC50 against human 15-PGDH is ≤ 0.1 µM. Besides, the fold induction at 1 µM in the test with A549 cells was > 1.5.
For `COc1ccc(-c2cccc3c(C(=O)N4CCCCC4)cnn23)cc1C(F)(F)F` [Example 20, (7-(4-methoxy-3-(trifluoromethyl)phenyl)pyrazolo[1,5-a]pyridin-3-yl)(piperidin-1-yl)methanone] the same measures were ≤ 0.1 µM and > 1.5.
For `Nc1noc2ccc(-c3cccc4c(C(=O)N5CCCCC5)cnn34)cc12` [Example 259, [7-(3-amino-1,2-benzoxazol-5-yl)pyrazolo[1,5-a]pyridin-3-yl]-(1-piperidyl)methanone] the same measures were ≤ 0.1 µM and > 1.5.
For `O=C(c1cnn2c(-c3cc(Cl)cnc3F)cccc12)N1CCCCC1` [Example 283, (7-(5-chloro-2-fluoropyridin-3-yl)pyrazolo[1,5-a]pyridin-3-yl)(piperidin-1-yl)methanone] the same measures were ≤ 0.1 µM and < 1.5.
Consider `O=C1NCc2ccc(-c3cccc4c(C(=O)N5CCCC(F)(F)C5)cnn34)cc21` [Example 382, 6-(3-(3,3-difluoropiperidine-1-carbonyl)pyrazolo[1,5-a]pyridin-7-yl)isoindolin-1-one], for which, at human 15-PGDH, the IC50 is ≤ 0.1 µM. For the same compound, the fold induction at 1 µM in the test with A549 cells was > 1.5.
Taken in the same sequence, the figures for `O=C(c1cnn2c(-c3cnc(Cl)c(F)c3)cccc12)N1CCCCC1` [Example 281, (7-(6-chloro-5-fluoropyridin-3-yl)pyrazolo[1,5-a]pyridin-3-yl)(piperidin-1-yl)methanone] were ≤ 0.1 µM and > 1.5.
For the compound `O=C(c1cnn2c(-c3cncc(-c4noc(=O)[nH]4)c3)cccc12)N1CCCCC1` [Example 297, 3-(5-(3-(piperidine-1-carbonyl)pyrazolo[1,5-a]pyridin-7-yl)pyridin-3-yl)-1,2,4-oxadiazol-5(4H)-one], on human 15-PGDH, the IC50 is ≤ 0.1 µM. Besides, the fold induction at 1 µM in the test with A549 cells is < 1.5.
For `O=C(c1cnn2c(-c3ccc(-c4noc(C(F)(F)F)n4)cc3)cccc12)N1CCCCC1` [Example 361, 1-piperidyl-[7-[4-[5-(trifluoromethyl)-1,2,4-oxadiazol-3-yl]phenyl]pyrazolo[1,5-a]pyridin-3-yl]methanone] the same measures were ≤ 0.1 µM and > 1.5.
Taken in the same sequence, the figures for `Cc1nc(-c2cc(-c3cccc4c(C(=O)N5CCCCC5)cnn34)ccc2F)no1` [Example 276, [7-[4-fluoro-3-(5-methyl-1,2,4-oxadiazol-3-yl)phenyl]pyrazolo[1,5-a]pyridin-3-yl]-(1-piperidyl)methanone] were ≤ 0.1 µM and > 1.5.
For `CN(C)CCNC(=O)c1ccc(-c2cccc3c(C(=O)N4CCCCC4)cnn23)cn1` [Example 79, N-(2-(dimethylamino)ethyl)-5-(3-(piperidine-1-carbonyl)pyrazolo[1,5-a]pyridin-7-yl)picolinamide] the same measures were ≤ 0.1 µM and > 1.5.
